Measured values reported in the supplement of paper PMC10307832.

Columns and labels:
Experiment in all cases: relative viability (nuclei count vs DMSO), 5 days (fraction); higher = more cells survive
Metformin + Decitabine = compound: CN(C)C(=N)NC(=N)N [Metformin] + Nc1ncn([C@H]2C[C@H](O)[C@@H](CO)O2)c(=O)n1 [Decitabine] (partner 2 µM)
Outline: (§1)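 Lung cancer cell lines, seeded in 1536-well plates, were treated the following day by pin tool with a single drug or with five library-drug doses (not always all listed) in √10 steps on top of a fixed anchor-drug dose. Cells were fixed and nuclei stained in one step after 5 days, and nuclei were counted. Relative viability is the nuclei count for treated wells divided by that for vehicle wells, reported as medians of duplicate plates.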

Metformin + Phenformin = compound: CN(C)C(=N)NC(=N)N [Metformin] + N=C(N)NC(=N)NCCc1ccccc1 [Phenformin] (partner 250 µM)
Outline: as §1

Apatinib + Linsitinib = compound: N#CC1(c2ccc(NC(=O)c3cccnc3NCc3ccncc3)cc2)CCCC1 [Apatinib] + C[C@]1(O)C[C@@H](c2nc(-c3ccc4ccc(-c5ccccc5)nc4c3)c3c(N)nccn32)C1 [Linsitinib] (partner 1 µM)
Outline: as §1

Metformin + Luminespib = compound: CN(C)C(=N)NC(=N)N [Metformin] + CCNC(=O)c1noc(-c2cc(C(C)C)c(O)cc2O)c1-c1ccc(CN2CCOCC2)cc1 [Luminespib] (partner 0.01 µM)
Outline: as §1

HCC-78
relative viability (Metformin + Decitabine; first compound 31.62 µM): 0.605
relative viability (Metformin + Decitabine; first compound 100 µM): 0.768
relative viability (Metformin + Decitabine; first compound 316.23 µM): 0.779
relative viability (Metformin + Decitabine; first compound 1000 µM): 0.658
relative viability (Metformin + Phenformin; first compound 10 µM): 0.685
relative viability (Metformin + Phenformin; first compound 31.62 µM): 0.716
relative viability (Metformin + Phenformin; first compound 100 µM): 0.627
relative viability (Metformin + Phenformin; first compound 316.23 µM): 0.651
relative viability (Metformin + Phenformin; first compound 1000 µM): 0.782
relative viability (Apatinib + Linsitinib; first compound 0.08 µM): 0.631
relative viability (Apatinib + Linsitinib; first compound 0.253 µM): 0.395
relative viability (Apatinib + Linsitinib; first compound 0.8 µM): 0.536
relative viability (Apatinib + Linsitinib; first compound 2.53 µM): 0.405
relative viability (Apatinib + Linsitinib; first compound 8 µM): 0.401

NCI-H1563
relative viability (Metformin + Phenformin; first compound 10 µM): 0.704
relative viability (Metformin + Phenformin; first compound 31.62 µM): 0.702
relative viability (Metformin + Phenformin; first compound 100 µM): 0.647
relative viability (Metformin + Phenformin; first compound 316.23 µM): 0.663
relative viability (Metformin + Phenformin; first compound 1000 µM): 0.56
relative viability (Apatinib + Linsitinib; first compound 0.08 µM): 1.28
relative viability (Apatinib + Linsitinib; first compound 0.253 µM): 1.22
relative viability (Apatinib + Linsitinib; first compound 0.8 µM): 1.13
relative viability (Apatinib + Linsitinib; first compound 2.53 µM): 1.12
relative viability (Apatinib + Linsitinib; first compound 8 µM): 1.03
relative viability (Metformin + Luminespib; first compound 10 µM): 0.588
relative viability (Metformin + Luminespib; first compound 31.62 µM): 0.629
relative viability (Metformin + Luminespib; first compound 100 µM): 0.577
relative viability (Metformin + Luminespib; first compound 316.23 µM): 0.407
relative viability (Metformin + Luminespib; first compound 1000 µM): 0.584

NCI-H1703
relative viability (Apatinib + Linsitinib; first compound 0.08 µM): 0.458
relative viability (Apatinib + Linsitinib; first compound 0.253 µM): 0.657
relative viability (Apatinib + Linsitinib; first compound 0.8 µM): 0.441
relative viability (Apatinib + Linsitinib; first compound 2.53 µM): 0.0986
relative viability (Apatinib + Linsitinib; first compound 8 µM): 0.132

NCI-H1650
relative viability (Metformin + Decitabine; first compound 10 µM): 0.326
relative viability (Metformin + Decitabine; first compound 31.62 µM): 0.343
relative viability (Metformin + Decitabine; first compound 100 µM): 0.317
relative viability (Metformin + Decitabine; first compound 316.23 µM): 0.402
relative viability (Metformin + Decitabine; first compound 1000 µM): 0.389
relative viability (Metformin + Phenformin; first compound 10 µM): 0.7
relative viability (Metformin + Phenformin; first compound 31.62 µM): 0.548
relative viability (Metformin + Phenformin; first compound 100 µM): 0.593
relative viability (Metformin + Phenformin; first compound 316.23 µM): 0.458
relative viability (Metformin + Phenformin; first compound 1000 µM): 0.476
relative viability (Metformin + Luminespib; first compound 10 µM): 0.189
relative viability (Metformin + Luminespib; first compound 31.62 µM): 0.212
relative viability (Metformin + Luminespib; first compound 100 µM): 0.203
relative viability (Metformin + Luminespib; first compound 316.23 µM): 0.218
relative viability (Metformin + Luminespib; first compound 1000 µM): 0.218

NCI-H2228
relative viability (Metformin + Phenformin; first compound 10 µM): 0.27
relative viability (Metformin + Phenformin; first compound 31.62 µM): 0.213
relative viability (Metformin + Phenformin; first compound 100 µM): 0.372
relative viability (Metformin + Phenformin; first compound 316.23 µM): 0.275
relative viability (Metformin + Phenformin; first compound 1000 µM): 0.322
relative viability (Apatinib + Linsitinib; first compound 0.08 µM): 0.708
relative viability (Apatinib + Linsitinib; first compound 0.253 µM): 0.501
relative viability (Apatinib + Linsitinib; first compound 0.8 µM): 0.521
relative viability (Apatinib + Linsitinib; first compound 2.53 µM): 0.629
relative viability (Apatinib + Linsitinib; first compound 8 µM): 0.629
relative viability (Metformin + Luminespib; first compound 10 µM): 0.133
relative viability (Metformin + Luminespib; first compound 31.62 µM): 0.185
relative viability (Metformin + Luminespib; first compound 100 µM): 0.157
relative viability (Metformin + Luminespib; first compound 316.23 µM): 0.165
relative viability (Metformin + Luminespib; first compound 1000 µM): 0.209

NCI-H1299
relative viability (Apatinib + Linsitinib; first compound 0.08 µM): 0.989
relative viability (Apatinib + Linsitinib; first compound 0.253 µM): 0.984
relative viability (Apatinib + Linsitinib; first compound 0.8 µM): 0.958
relative viability (Apatinib + Linsitinib; first compound 2.53 µM): 0.853
relative viability (Apatinib + Linsitinib; first compound 8 µM): 0.77

ChaGo-K-1
relative viability (Metformin + Decitabine; first compound 10 µM): 0.524
relative viability (Metformin + Decitabine; first compound 31.62 µM): 0.535
relative viability (Metformin + Decitabine; first compound 100 µM): 0.512
relative viability (Metformin + Decitabine; first compound 316.23 µM): 0.481
relative viability (Metformin + Decitabine; first compound 1000 µM): 0.509
relative viability (Metformin + Phenformin; first compound 10 µM): 0.539
relative viability (Metformin + Phenformin; first compound 31.62 µM): 0.498
relative viability (Metformin + Phenformin; first compound 100 µM): 0.488
relative viability (Metformin + Phenformin; first compound 316.23 µM): 0.489
relative viability (Metformin + Phenformin; first compound 1000 µM): 0.557
relative viability (Metformin + Luminespib; first compound 10 µM): 0.599
relative viability (Metformin + Luminespib; first compound 31.62 µM): 0.751
relative viability (Metformin + Luminespib; first compound 100 µM): 0.67
relative viability (Metformin + Luminespib; first compound 316.23 µM): 0.634
relative viability (Metformin + Luminespib; first compound 1000 µM): 0.696

NCI-H522
relative viability (Metformin + Decitabine; first compound 10 µM): 0.659
relative viability (Metformin + Decitabine; first compound 31.62 µM): 0.599
relative viability (Metformin + Decitabine; first compound 100 µM): 0.679
relative viability (Metformin + Decitabine; first compound 316.23 µM): 0.648
relative viability (Metformin + Decitabine; first compound 1000 µM): 0.7
relative viability (Metformin + Phenformin; first compound 10 µM): 0.716
relative viability (Metformin + Phenformin; first compound 31.62 µM): 0.649
relative viability (Metformin + Phenformin; first compound 100 µM): 0.713
relative viability (Metformin + Phenformin; first compound 316.23 µM): 0.584
relative viability (Metformin + Phenformin; first compound 1000 µM): 0.712
relative viability (Metformin + Luminespib; first compound 10 µM): 1.4
relative viability (Metformin + Luminespib; first compound 31.62 µM): 1.27
relative viability (Metformin + Luminespib; first compound 100 µM): 1.65
relative viability (Metformin + Luminespib; first compound 316.23 µM): 1.54
relative viability (Metformin + Luminespib; first compound 1000 µM): 1.33

NCI-H1623
relative viability (Metformin + Phenformin; first compound 10 µM): 0.556
relative viability (Metformin + Phenformin; first compound 31.62 µM): 0.553
relative viability (Metformin + Phenformin; first compound 100 µM): 0.569
relative viability (Metformin + Phenformin; first compound 316.23 µM): 0.577
relative viability (Metformin + Phenformin; first compound 1000 µM): 0.371
relative viability (Metformin + Luminespib; first compound 10 µM): 0.475
relative viability (Metformin + Luminespib; first compound 31.62 µM): 0.429
relative viability (Metformin + Luminespib; first compound 100 µM): 0.596
relative viability (Metformin + Luminespib; first compound 316.23 µM): 0.487
relative viability (Metformin + Luminespib; first compound 1000 µM): 0.755

NCI-H2342
relative viability (Metformin + Decitabine; first compound 31.62 µM): 0.812
relative viability (Metformin + Decitabine; first compound 100 µM): 0.708
relative viability (Metformin + Decitabine; first compound 316.23 µM): 0.714
relative viability (Metformin + Decitabine; first compound 1000 µM): 0.693
relative viability (Metformin + Phenformin; first compound 10 µM): 0.59
relative viability (Metformin + Phenformin; first compound 31.62 µM): 0.47
relative viability (Metformin + Phenformin; first compound 100 µM): 0.494
relative viability (Metformin + Phenformin; first compound 316.23 µM): 0.51
relative viability (Metformin + Phenformin; first compound 1000 µM): 0.572
relative viability (Metformin + Luminespib; first compound 10 µM): 0.687
relative viability (Metformin + Luminespib; first compound 31.62 µM): 0.706
relative viability (Metformin + Luminespib; first compound 100 µM): 0.726
relative viability (Metformin + Luminespib; first compound 316.23 µM): 0.731
relative viability (Metformin + Luminespib; first compound 1000 µM): 0.71

A549
relative viability (Metformin + Decitabine; first compound 10 µM): 0.182
relative viability (Metformin + Decitabine; first compound 31.62 µM): 0.291
relative viability (Metformin + Decitabine; first compound 100 µM): 0.179
relative viability (Metformin + Decitabine; first compound 316.23 µM): 0.198
relative viability (Metformin + Decitabine; first compound 1000 µM): 0.209
relative viability (Metformin + Phenformin; first compound 10 µM): 0.0727
relative viability (Metformin + Phenformin; first compound 31.62 µM): 0.111
relative viability (Metformin + Phenformin; first compound 100 µM): 0.127
relative viability (Metformin + Phenformin; first compound 316.23 µM): 0.124
relative viability (Metformin + Phenformin; first compound 1000 µM): 0.154
relative viability (Apatinib + Linsitinib; first compound 0.08 µM): 0.534
relative viability (Apatinib + Linsitinib; first compound 0.253 µM): 0.647
relative viability (Apatinib + Linsitinib; first compound 0.8 µM): 0.686
relative viability (Apatinib + Linsitinib; first compound 2.53 µM): 0.649
relative viability (Apatinib + Linsitinib; first compound 8 µM): 0.563

CAL-12T
relative viability (Metformin + Phenformin; first compound 10 µM): 0.635
relative viability (Metformin + Phenformin; first compound 31.62 µM): 0.61
relative viability (Metformin + Phenformin; first compound 100 µM): 0.634
relative viability (Metformin + Phenformin; first compound 316.23 µM): 0.555
relative viability (Metformin + Phenformin; first compound 1000 µM): 0.604
relative viability (Apatinib + Linsitinib; first compound 0.08 µM): 0.875
relative viability (Apatinib + Linsitinib; first compound 0.253 µM): 0.879
relative viability (Apatinib + Linsitinib; first compound 0.8 µM): 0.819
relative viability (Apatinib + Linsitinib; first compound 2.53 µM): 0.762
relative viability (Apatinib + Linsitinib; first compound 8 µM): 0.654
relative viability (Metformin + Luminespib; first compound 10 µM): 0.253
relative viability (Metformin + Luminespib; first compound 31.62 µM): 0.775
relative viability (Metformin + Luminespib; first compound 100 µM): 0.447
relative viability (Metformin + Luminespib; first compound 316.23 µM): 0.699
relative viability (Metformin + Luminespib; first compound 1000 µM): 0.417

EBC-1
relative viability (Apatinib + Linsitinib; first compound 0.08 µM): 0.935
relative viability (Apatinib + Linsitinib; first compound 0.253 µM): 0.981
relative viability (Apatinib + Linsitinib; first compound 0.8 µM): 0.955
relative viability (Apatinib + Linsitinib; first compound 2.53 µM): 0.685
relative viability (Apatinib + Linsitinib; first compound 8 µM): 0.567
